Here are results for 2 molecules from patent US7678795B2, “Pyridazines as 11b-HSD1 inhibitors” (Hoffman-La Roche Inc., priority 2005, dated 2010).

Structures are written as SMILES.

For this assay, the target named is T1, human 11beta-HSD1 (Homo sapiens, UniProt P28845).
T1 construct: made in house; host or cells: HEK293 cells (ATCC CRL-1573), transient transfection; microsomal fraction
Description: Microsome assay (cortisone to cortisol conversion, ELISA-based cortisol detection). The format is biochemical. The conditions noted are these: microsomes from HEK293 cells transiently expressing human 11beta-HSD1; Cortisone 50-200 nM, NADPH 1 mM; 60 min at 37° C.; read-out: 11-beta-HSD 1 IC50. Here is the method:
Transient Expression and Partial Purification:
The cDNA encoding the human 11beta-HSD1 protein was cloned into the expression vector pcDNA3 ([…]). This construct (for details see Alex Odermatt et al.; J Biol. Chem.,1999, Vol. 274, Issue 40, 28762-28770) was used to transiently express the protein in HEK293 cells (ATCC number: CRL-1573, described in Graham, F. L., Smiley, J., Russell, W. C., Nairn, R.; (1977)) using lipofectamine. 48 h after transfection cells were washed twice with ice-cold PBS (Phosphate buffered Saline). To 1 volume of cell suspension in PBS 2 volumes of ice-cold lysis buffer (50 mM Tris; pH7.5; 1 mM EDTA; 100 mM NaCl) were added. The cells were lysed by Potter-homogenization (20 strokes). The resulting homogenate was sonicated wit a tip sonicator (10% output; 2×30 sec.) and cleared by a low speed centrifugation (10 min×9000 g; 4° C.). […]
Microsomes isolated from HEK293 cells transiently expressing human 11beta-HSD1 (for details see above) were incubated in assay buffer (100 mM NaCl; 1 mM EDTA; 1 mM EGTA; 1 mM MgCl; 250 mM Sucrose; 20 mM Tris pH 7.4; Cortisone 50-200 nM and NADPH 1 mM) together with different concentrations of test substances. […] The amount of Cortisol produced in this assay was determined using a commercially available, ELISA-based Cortisol-detection kit (Distributed by Assay Design, Inc.). […]
(ELISA stands for enzyme-linked immunosorbent assay.)

T1 sequence (P28845 whole entry): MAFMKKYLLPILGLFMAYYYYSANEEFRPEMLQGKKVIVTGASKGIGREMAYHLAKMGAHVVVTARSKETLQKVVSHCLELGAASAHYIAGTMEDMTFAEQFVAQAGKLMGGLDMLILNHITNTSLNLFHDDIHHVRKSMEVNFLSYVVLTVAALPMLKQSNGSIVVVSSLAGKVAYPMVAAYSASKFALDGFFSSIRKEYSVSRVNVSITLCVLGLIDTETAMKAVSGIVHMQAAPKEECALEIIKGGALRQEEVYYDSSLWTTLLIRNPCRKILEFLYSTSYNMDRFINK

The IC50 is the concentration needed to halve the response being measured. Turning to `Cc1c(-c2cc3c(nn2)[C@@]2(C)CC[C@@H]3C2(C)C)cnn1-c1ccccc1` [Example 1, (1S,8R)-1,11,11-Trimethyl-5-(5-methyl-1-phenyl-1H-pyrazol-4-yl)-3,4-diaza-tricyclo[6.2.1.0^2,7]undeca-2(7),3,5-triene], the concentration for half-maximal inhibition (IC50) came to 30 nM.

As to `FC(F)(F)c1ccccc1-c1cc2c(nn1)CCCCCC2` [Example 41, 3-(2-Trifluoromethyl-phenyl)-5,6,7,8,9,10-hexahydro-cycloocta[c]pyridazine], the IC50 was found to be 3 nM.
